# From patent US20170296550A1, “ARYL SULTAM DERIVATIVES AS RORc MODULATORS” (Genentech, Inc., priority 2013, published 2017)
# pIC50: −log10 of the molar value.
# Biological target: T1, RORc (Homo sapiens, UniProt P51449)
# T1 construct: host or cells: E. coli
# T1 sequence (P51449 269-508 limits assumed): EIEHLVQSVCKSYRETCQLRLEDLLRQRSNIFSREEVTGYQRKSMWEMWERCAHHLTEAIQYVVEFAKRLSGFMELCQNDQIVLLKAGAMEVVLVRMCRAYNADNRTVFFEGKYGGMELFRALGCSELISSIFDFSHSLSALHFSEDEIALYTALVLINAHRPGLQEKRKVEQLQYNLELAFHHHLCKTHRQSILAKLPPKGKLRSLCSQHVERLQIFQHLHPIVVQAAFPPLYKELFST
# Test: In Vitro RORc Ligand Binding Assay (25-[3H]hydroxycholesterol radioligand, filter plate)
# Details: RORc ligand binding domain 0.6 ug/mL; 6 nM 25-[3H]hydroxycholesterol; 3 h at 25° C.
# Procedure: Example 68 In Vitro RORc Ligand Binding Assay
# This assay was used to determine a compound's potency in inhibiting activity of RORc by determining, Kiapp, IC50, or percent inhibition values.
# On day of the assay, 100 uL of 0.05% CHAPS (in deionized H2O) was added to all wells of the GFB Unifilter plate and allowed soak for 1 h. A wash buffer of 50 mM HEPES (pH 7.4), 150 mM NaCl, and 5 mM MgCl2 was prepared to wash the filter plate. To prepare an assay buffer, BSA was added to the wash buffer to reach 0.01% and DTT was added to reach 1 mM.
# For IC50 mode, 10 mM compound stocks were serially diluted in DMSO with DMSO to give 20× required final concentration in DMSO (15 uL compound+30 uL DMSO). The 20× compound stocks were diluted in DMSO with Assay Buffer 4-fold to reach 5× the final test concentration in 25% DMSO (10 uL compound+30 uL Assay Buffer). Solutions were mixed by aspiration several times with a pipette set on 50 uL volume. For the assay, 10 uL of 5× compound stock solutions in 25% DMSO were added to the assay plate in duplicate.
# For two point screening, 10 mM stock compound solutions were diluted in DMSO to obtain 200 uM (20× the high test concentration) and then diluted 10-fold further to reach 20 uM (20× the low test concentration). The 20× stocks were diluted 4-fold with Assay Buffer (10 uL compound+30 uL Assay Buffer) to reach 5× the test concentrations (50 uM and 5 uM) and 10 uL were added to two assay plates for the duplicate wells. With each concentration tested on 2 plates, each set of 80 compounds used 4 assay plates (1 uM and 10 uM, with n=2).
# 25-hydroxycholesterol (1 uM) was used to determine the level of NSB signal is prepared in DMSO as for compounds above, then diluted in Assay Buffer to give a final concentration of 5 uM. For 25-hydroxycholesterol in 25% DMSO/75% Assay Buffer; 10 uL per well was used for NSB samples. Wells for Total Binding and No Receptor sample determination contained 10 uL of 25% DMSO/75% Assay Buffer per well.
# Radioligand (25-[^3H]hydroxycholesterol) Preparation
# 25-[^3H]hydroxycholesterol was dilute in Assay Buffer to obtain 15 nM and vortex to mix. Add 20 uL to all wells to reach 6 nM final in the assay.
# Stock receptor solution was diluted in assay buffer to obtain 1.5 ug/mL in Assay Buffer. 20 uL was added to all wells. For No R samples, 20 uL Assay Buffer was substituted for receptor solution.
# Assay plates were 96-well polypropylene V-bottom plates. 10 uL of 5× compound in 25% DMSO/75% Assay Buffer was added to Test wells. 10 uL of 25% DMSO/75% Assay Buffer was added to Total Binding or No Receptor wells. 10 uL of 5 uM 25-hydroxycholesterol in 25% DMSO/75% Assay Buffer was added to NSB wells. 20 uL of 15 nM 25-[^3H]hydroxycholesterol prepared in Assay Buffer was added to all wells. 20 uL of 1.5 ug/mL RORc receptor was added to wells (or […] Assay Buffer to No R wells). Following addition to the wells, the plates were incubated 3 h at 25° C.
# Using a Packard Filtermate Harvester, the filter plate were washed 4 times following transfer of the incubated samples. Plates were dry-filtered completely (2 h at 50° C. or overnight at room temperature). 50 uL Microscint 0 was added to all wells and read on Topcount protocol Inverted.
# Final concentrations were as follows: 50 mM HEPES buffer (pH 7.4); 150 mM NaCl; 1 mM DTT; 5 mM MgCl2; 0.01% BSA; 5% DMSO; 0.6 ug/mL RORc receptor; 6 nM 25-[^3H]hydroxycholesterol. For NSB wells, 1 uM 25-hydroxycholesterol was also present.
row,pIC50,SMILES
1,6.28,"Cc1n[nH]c(C)c1-c1ccc(CN2[C@@H](C)CCC(c3ccccc3)S2(=O)=O)c(F)c1 (single isomer, unassigned) [Example 1]"
2,7.57,"Cc1noc(C)c1C(=O)Nc1ccc(CN2[C@@H](C)CCC(c3ccccc3)S2(=O)=O)c(F)c1 (single isomer, unassigned) [Example 4]"
3,6.30,"C[C@H]1CCC(c2ccccc2)S(=O)(=O)N1Cc1ccc(C(=O)NCc2cn[nH]c2)cc1 (single isomer, unassigned) [Example 7]"
4,6.01,"Cc1cc(NC(=O)c2ccc(CN3[C@@H](C)CCC(c4ccccc4)S3(=O)=O)cc2)n(C)n1 (single isomer, unassigned) [Example 9]"
5,5.54,"C[C@H]1CCC(c2ccccc2)S(=O)(=O)N1Cc1ccc(C(=O)Nc2nc[nH]c2C#N)cc1 (single isomer, unassigned) [Example 10]"
6,5.48,"C[C@H]1CCC(c2ccccc2)S(=O)(=O)N1Cc1ccc(C(=O)Nc2ncnn2C)cc1 (single isomer, unassigned) [Example 21]"
7,7.06,"C[C@H]1CCC(c2ccccc2)S(=O)(=O)N1Cc1ccc(-c2ccc(S(N)(=O)=O)cc2)cc1F (single isomer, unassigned) [Example 22]"
8,6.68,"C[C@H]1CCC(c2ccccc2)S(=O)(=O)N1Cc1ccc(-c2cccc(CC(N)=O)c2)cc1F (single isomer, unassigned) [Example 25]"
9,6.80,"C[C@H]1CCC(c2ccccc2)S(=O)(=O)N1Cc1ccc(-c2ccc(C(=O)N(C)C)cc2)cc1F (single isomer, unassigned) [Example 30]"
10,6.56,"C[C@H]1CCC(c2ccccc2)S(=O)(=O)N1Cc1ccc(-c2csc(S(C)(=O)=O)n2)cc1F (single isomer, unassigned) [Example 37]"
11,6.54,"C[C@H]1CCC(c2ccccc2)S(=O)(=O)N1Cc1ccc(-c2ccc(S(C)(=O)=O)nn2)cc1F (single isomer, unassigned) [Example 41]"
12,5.66,"C[C@H]1CCC(c2ccccc2)S(=O)(=O)N1Cc1ccc(-c2n[nH]c(S(C)(=O)=O)n2)cc1F (single isomer, unassigned) [Example 42]"
13,6.56,"C[C@H]1CCC(c2ccccc2)S(=O)(=O)N1Cc1ccc(-c2cnc(NS(C)(=O)=O)nc2)cc1F (single isomer, unassigned) [Example 43]"
14,6.02,"Cc1ccnc(COc2ccc(CN3[C@@H](C)CCC(c4ccccc4)S3(=O)=O)cc2)n1 (single isomer, unassigned) [Example 44]"
15,6.16,"CC(Oc1ccc(CN2[C@@H](C)CCC(c3ccccc3)S2(=O)=O)cc1)c1cnn(C)c1 (single isomer, unassigned) [Example 45]"
16,5.87,"CC(Oc1ccc(CN2[C@@H](C)CCC(c3ccccc3)S2(=O)=O)cc1)c1ncccn1 (single isomer, unassigned) [Example 50]"

row,pIC50,SMILES
1,6.94,"C[C@H]1CCC(c2ccccc2)S(=O)(=O)N1Cc1ccc(OCc2ccncc2)cc1 (single isomer, unassigned) [Example 57]"
2,6.97,"C[C@H]1CCC(c2ccccc2)S(=O)(=O)N1Cc1ccc(OCc2cccnc2)cc1 (single isomer, unassigned) [Example 58]"
3,6.82,"Cc1ncsc1CCOc1ccc(CN2[C@@H](C)CCC(c3ccccc3)S2(=O)=O)cc1 (single isomer, unassigned) [Example 61]"
4,6.34,"C[C@H]1CCC(c2ccccc2)S(=O)(=O)N1Cc1ccc(-c2ccc3nncn3c2)cc1F (stereo partly drawn) [Example 5, 6-[3-Fluoro-4-((3S)-3-methyl-1,1-dioxo-6-phenyl-[1,2]thiazinan-2-ylmethyl)-phenyl]-[1,2,4]triazolo[4,3-a]pyridine]"
5,5.41,"C[C@H]1CCC(c2ccccc2)S(=O)(=O)N1Cc1ccc(C(=O)NCCn2ccnc2)cc1 (stereo partly drawn) [Example 6, N-(2-Imidazol-1-yl-ethyl)-4-((3S)-3-methyl-1,1-dioxo-6-phenyl-[1,2]thiazinan-2-ylmethyl)-benzamide]"
6,5.30,"C[C@H]1CC[C@H](c2ccccc2)S(=O)(=O)N1Cc1ccc(C(=O)NCCCn2ccnc2)cc1 [Example 8, N-(3-Imidazol-1-yl-propyl)-4-((3S)-3-methyl-1,1-dioxo-6-phenyl-[1,2]thiazinan-2-ylmethyl)-benzamide]"
7,5.91,"Cc1cc(NC(=O)c2ccc(CN3[C@@H](C)CCC(c4ccccc4)S3(=O)=O)cc2)n[nH]1 (stereo partly drawn) [Example 11, 4-((3S)-3-Methyl-1,1-dioxo-6-phenyl-[1,2]thiazinan-2-ylmethyl)-N-(5-methyl-1H-pyrazol-3-yl)-benzamidc]"
8,6.39,"Cc1cc(NC(=O)c2ccc(CN3[C@@H](C)CCC(c4ccccc4)S3(=O)=O)cc2)no1 (stereo partly drawn) [Example 12, 4-((3S)-3-Methyl-1,1-dioxo-6-phenyl-[1,2]thiazinan-2-ylmethyl)-N-(5-methyl-isoxazol-3-yl)-benzamide]"
9,6.78,"C[C@H]1CCC(c2ccccc2)S(=O)(=O)N1Cc1ccc(C(=O)Nc2ccon2)cc1 (stereo partly drawn) [Example 13, N-Isoxazol-3-yl-4-((3S)-3-methyl-1,1-dioxo-6-phenyl-[1,2]thiazinan-2-ylmethyl)-benzamide]"
10,5.86,"C[C@H]1CCC(c2ccccc2)S(=O)(=O)N1Cc1ccc(C(=O)NCc2noc(C(N)=O)n2)cc1 (stereo partly drawn) [Example 14, 3-{[4-((3S)-3-Methyl-1,1-dioxo-6-phenyl-[1,2]thiazinan-2-ylmethyl)-benzoylamino]-methyl}-[1,2,4]oxadiazole-5-carboxylic acid amide]"
11,5.28,"C[C@H]1CCC(c2ccccc2)S(=O)(=O)N1Cc1ccc(C(=O)NCc2noc(C(=O)N(C)C)n2)cc1 (stereo partly drawn) [Example 15, 3-{[4-((3S)-3-Methyl-1,1-dioxo-6-phenyl-[1,2]thiazinan-2-ylmethyl)-benzoylamino]-methyl}-[1,2,4]oxadiazole-5-carboxylic acid dimethylamide]"
12,5.32,"C[C@H]1CCC(c2ccccc2)S(=O)(=O)N1Cc1ccc(C(=O)N(C)c2ncco2)cc1 (stereo partly drawn) [Example 16, N-Methyl-4-((3S)-3-methyl-1,1-dioxo-6-phenyl-[1,2]thiazinan-2-ylmethyl)-N-oxazol-2-yl-benzamide]"
13,5.70,"C[C@H]1CCC(c2ccccc2)S(=O)(=O)N1Cc1ccc(C(=O)NCc2ccnn2C)cc1 (stereo partly drawn) [Example 17, 4-((3S)-3-Methyl-1,1-dioxo-6-phenyl-[1,2]thiazinan-2-ylmethyl)-N-(2-methyl-2H-pyrazol-3-ylmethyl)-benzamide]"
14,5.72,"CC(NC(=O)c1ccc(CN2[C@@H](C)CCC(c3ccccc3)S2(=O)=O)cc1)c1ncc[nH]1 (stereo partly drawn) [Example 18, N-[1-(1H-Imidazol-2-yl)-ethyl]-4-((3S)-3-methyl-1,1-dioxo-6-phenyl-[1,2]thiazinan-2-ylmethyl)-benzamide]"
15,6.01,"C[C@H]1CCC(c2ccccc2)S(=O)(=O)N1Cc1ccc(C(=O)NCc2ccno2)cc1 (stereo partly drawn) [Example 19, N-Isoxazol-5-ylmethyl-4-((3S)-3-methyl-1,1-dioxo-6-phenyl-[1,2]thiazinan-2-ylmethyl)-benzamide]"
16,5.68,"Cc1nn(C)cc1NC(=O)c1ccc(CN2[C@@H](C)CCC(c3ccccc3)S2(=O)=O)cc1 (stereo partly drawn) [Example 20, N-(1,3-Dimethyl-1H-pyrazol-4-yl)-4-((3S)-3-methyl-1,1-dioxo-6-phenyl-[1,2]thiazinan-2-ylmethyl)-benzamide]"
